Key:
Kunming mice [1] = assay: Analgesic activity by acetic acid-induced writhing method (writhing inhibition rate, ED50); format: in vivo; settings: Mus musculus, sc, read-out: Analgesia rate (%) ± SEM
Description: (§1) The experimental animals were Kunming mice (male:female=1:1), weighed 22+2 g, which were provided by Chengdu dossy experimental animals Co., ltd., China. The mice were kept in the animal room of the School of Life Science and Engineering, Southwest Jiaotong University, where the animal room was set at a temperature of 23±2° C., a humidity of […] and a photoperiod of 16:8 h (L:D). Before the experiment, the mice were freely fed for 2-3 days with water and feed to adapt to the new environment. Then, the mice were treated by water and food fasting for 12 h. 10 animals were allocated to each group to ensure that there are at least 6 sets of valid data in each group. The animal experiments were carried out in strict accordance with the national regulations on the management of experimental animals.
(§2) The compounds prepared in the examples provided herein (test sample set) and bulleyaconitine A (positive control set) were all dissolved with 0.1 mol/L HCl according to a molar ratio of 1:1, and then diluted with physiological saline to a concentration to be determined. Blank control was physiological saline containing 0.1 mol/L HCl. The animals in the control groups were subjected to the same treatment as those in experimental groups except that samples to be test were replaced with physiological saline.
(1) Determination of Analgesic Activity Through an Acetic Acid-Induced Writhing Method
10 mice were randomly selected, male:female=1:1, were placed in independent cages. Each mouse was injected subcutaneously with the sample solution mentioned above at a dose of 0.1 mL/10 g body weight. After 15 min, a 0.7% acetic acid solution was intraperitoneally injected. A number of writhing reactions in each mouse within 15 minutes was recorded. The group that the mice were injected with physiological saline subcutaneously was the blank group; the group that the mice were injected with the sample to be tested was the experimental group; and the group that the mice were injected with bulleyaconitine A was the positive group. The analgesic activity was represented by a percentage of the reduced number of writhing compared to the blank group (writhing inhibition rate), which were specifically as follows: writhing inhibition rate (analgesic activity)=(average number of writhing times in the blank group-average number of writhing times in the experimental group)/average number of writhing times in the blank group×100%.
Median Effective Dose (ED50) Determination
The sample to be tested was dissolved with 0.1 mol/L HCl according to the amount of the substance ratio of 1:1, and diluted with physiological saline according to the proportional series to obtain at least 5 groups with different dose concentrations. The writhing inhibition rate of each dose group was tested according to the acetic acid-induced writhing method mentioned above. The obtained dose-writhing inhibition data was entered into the statistical product and service solutions (SPSS) software (version 17.2), and the ED50 of the sample to be tested was calculated through the Probit regression method.

Kunming mice [2] = assay: Acute toxicity / median lethal dose (LD50) determination, subcutaneous injection; format: in vivo; design: key to Acute toxicity: if death occurred, (+) represented as positive; if no death occurred, (−) represented as negative; settings: mice administered 20 mg/kg subcutaneously, presence of death within 24 h
Description: as §1, §2
(2) Median Lethal Dose (LD50) Determination
The sample to be tested was dissolved with 0.1 mol/L HCl according to the amount of the substance ratio of 1:1, and diluted with physiological saline according to the required concentration. 10 mice in each group were randomly selected, half of which were male and half of which were female, and were placed in independent cages. Each mouse was injected subcutaneously with different sample solutions to be tested according to a dose of 0.1 mL/10 g body weight. In the preliminary toxicity experiment, the measured concentration was 20 mg/kg, and then based on the survival rate of the experimental animals in the preliminary experiment, the sample to be tested was set to at least 5 groups with different concentration dose according to the proportional series. The survival rate of mice within 24 h was recorded. The obtained dose-survival rate data was input into the SPSS software (version 17.2), and the LD50 of the sample was calculated according to the Probit regression method.

| SMILES | inhibition in vivo at 0.05 mg/kg (Kunming mice [1]) [%] | Acute toxicity (Kunming mice [2]) |
| --- | --- | --- |
| CCN1C[C@]2(COC)CC[C@H](OC)[C@@]34C5C[C@]6(OC(C)=O)[C@@H](OC)C[C@@](OC)(C5[C@H]6OC(C)=O)C([C@H](OC)C23)[C@@H]14 (stereo partly drawn) [Compound 44] | 5.82 ± 3.4 | − |
| C/C=C/C(=O)O[C@]12CC3C([C@H]1OC(=O)c1ccc(OC)cc1)[C@](OC(C)=O)(C[C@@H]2OC)C1[C@H](OC)C2[C@@]4(COC)CC[C@H](OC)[C@@]32[C@@H]1N(CC)C4 (stereo partly drawn) [Compound 87] | 17.3 ± 3.1 | − |
| CCN1C[C@]2(COC)CC[C@H](OC)[C@@]34C5C[C@]6(OC(=O)c7ccc(Cl)s7)[C@@H](OC)C[C@@](OC(C)=O)(C5[C@H]6OC(=O)c5ccc(OC)cc5)C([C@H](OC)C23)[C@@H]14 (stereo partly drawn) [Compound 22] | 6.27 ± 2.3 | − |
| CCN1C[C@]2(COC)CC[C@H](OC)[C@@]34C5C[C@]6(OC(=O)c7ccccc7)[C@@H](OC)C[C@@](OC(C)=O)(C5[C@H]6OC(=O)c5ccc(OC)cc5)C([C@H](OC)C23)[C@@H]14 (stereo partly drawn) [Compound 54] | 0 | − |
| CCN1C[C@]2(COC)CC[C@H](OC)[C@@]34C5C[C@]6(OC(=O)c7ccc(C)cc7)[C@@H](OC)C[C@@](OC(C)=O)(C5[C@H]6OC(=O)c5ccc(OC)cc5)C([C@H](OC)C23)[C@@H]14 (stereo partly drawn) [Compound 58] | 28.8 ± 1.8 | − |
| CCCC(=O)O[C@]12CC3C([C@H]1OC(=O)c1ccc(OC)cc1)[C@](OCC)(C[C@@H]2OC)C1[C@H](OC)C2[C@@]4(COC)CC[C@H](OC)[C@@]32[C@@H]1N(CC)C4 (stereo partly drawn) [Compound 78] | 31.7 ± 1.4 | − |
| CCO[C@]12C[C@H](OC)[C@@]3(OC(=O)c4ccccc4C)CC(C1[C@H]3OC(=O)c1ccccc1C)[C@]13C4[C@@H](OC)C2[C@H]1N(CC)C[C@]4(COC)CC[C@@H]3OC (stereo partly drawn) [Compound 75] | 10.8 ± 2.2 | − |
| CCO[C@]12C[C@H](OC)[C@@]3(OC(=O)c4ccccc4)CC(C1[C@H]3OC(=O)c1ccc(OC)cc1)[C@]13C4[C@@H](OC)C2[C@H]1N(CC)C[C@]4(COC)CC[C@@H]3OC (stereo partly drawn) [Compound 53] | 0 | − |
| CCN1C[C@]2(COC)CC[C@H](OC)[C@@]34C5C[C@]6(OC(=O)c7cccnc7)[C@@H](OC)C[C@@](OC)(C5[C@H]6OC(=O)c5cccnc5)C([C@H](OC)C23)[C@@H]14 (stereo partly drawn) [Compound 30] | 31.1 ± 2.4 | − |
| CCO[C@]12C[C@H](OC)[C@@]3(OC(=O)c4cc([N+](=O)[O-])cc([N+](=O)[O-])c4)CC(C1[C@H]3OC(=O)c1cc([N+](=O)[O-])cc([N+](=O)[O-])c1)[C@]13C4[C@@H](OC)C2[C@H]1N(CC)C[C@]4(COC)CC[C@@H]3OC (stereo partly drawn) [Compound 96] | 30.1 ± 1.3 | − |
| CCN1C[C@]2(COC)CC[C@H](OC)[C@@]34C5C[C@]6(O)[C@@H](OC)C[C@@](OC)(C5[C@H]6OC(=O)c5ccc(OC)cc5)C([C@H](OC)C23)[C@@H]14 (stereo partly drawn) [Compound 1] | 25.5 ± 2.9 | + |
| CCN1C[C@]2(COC)CC[C@H](OC)[C@@]34C5C[C@]6(OC(=O)c7ccc(OC)cc7)[C@@H](OC)C[C@@](OC)(C5[C@H]6OC(=O)c5ccc(OC)cc5)C([C@H](OC)C23)[C@@H]14 (stereo partly drawn) [Compound 31] | 17 ± 2.2 | − |
| CCO[C@]12C[C@H](OC)[C@@]3(OC(=O)c4cccc(C)c4)CC(C1[C@H]3OC(=O)c1cccc(C)c1)[C@]13C4[C@@H](OC)C2[C@H]1N(CC)C[C@]4(COC)CC[C@@H]3OC (stereo partly drawn) [Compound 62] | 15 ± 2.4 | − |
| CCN1C[C@]2(COC)CC[C@H](OC)[C@@]34C5C[C@]6(OC(=O)c7ccc(C(F)(F)F)cc7)[C@@H](OC)C[C@@](OC(C)=O)(C5[C@H]6OC(=O)c5ccc(OC)cc5)C([C@H](OC)C23)[C@@H]14 (stereo partly drawn) [Compound 48] | 17.5 ± 3 | − |
| CCN1C[C@]2(COC)CC[C@H](OC)[C@@]34C5C[C@]6(OC(=O)c7ccc(Cl)cc7)[C@@H](OC)C[C@@](OC(C)=O)(C5[C@H]6OC(=O)c5ccc(OC)cc5)C([C@H](OC)C23)[C@@H]14 (stereo partly drawn) [Compound 84] | 27 ± 1.4 | − |
| CCO[C@]12C[C@H](OC)[C@@]3(OC(=O)c4ccc(C)cc4)CC(C1[C@H]3OC(=O)c1ccc(C)cc1)[C@]13C4[C@@H](OC)C2[C@H]1N(CC)C[C@]4(COC)CC[C@@H]3OC (stereo partly drawn) [Compound 56] | 11.4 ± 2 | − |
| CCO[C@]12C[C@H](OC)[C@@]3(OC(=O)c4ccc(CC)cc4)CC(C1[C@H]3OC(=O)c1ccc(CC)cc1)[C@]13C4[C@@H](OC)C2[C@H]1N(CC)C[C@]4(COC)CC[C@@H]3OC (stereo partly drawn) [Compound 63] | 0 | − |
| CCO[C@]12C[C@H](OC)[C@@]3(OC(=O)C(C)C)CC(C1[C@H]3OC(=O)c1ccc(OC)cc1)[C@]13C4[C@@H](OC)C2[C@H]1N(CC)C[C@]4(COC)CC[C@@H]3OC (stereo partly drawn) [Compound 81] | 28.8 ± 1.2 | − |
| CCN1C[C@]2(COC)CC[C@H](OC)[C@@]34C5C[C@]6(OC(=O)C7CCCCC7)[C@@H](OC)C[C@@](OC)(C5[C@H]6OC(=O)C5CCCCC5)C([C@H](OC)C23)[C@@H]14 (stereo partly drawn) [Compound 34] | 37 ± 1.4 | − |
| CCN1C[C@]2(COC)CC[C@H](OC)[C@@]34C5C[C@]6(OC(=O)C7CC7)[C@@H](OC)C[C@@](OC(C)=O)(C5[C@H]6OC(=O)c5ccc(OC)cc5)C([C@H](OC)C23)[C@@H]14 (stereo partly drawn) [Compound 10] | 15.2 ± 1.9 | − |
| CCO[C@]12C[C@H](OC)[C@@]3(OC(C)=O)CC(C1[C@H]3OC(C)=O)[C@]13C4[C@@H](OC)C2[C@H]1N(CC)C[C@]4(COC)CC[C@@H]3OC (stereo partly drawn) [Compound 41] | 18.5 ± 2.1 | − |
| CCO[C@]12C[C@H](OC)[C@@]3(OC(=O)c4ccccc4OC)CC(C1[C@H]3OC(=O)c1ccccc1OC)[C@]13C4[C@@H](OC)C2[C@H]1N(CC)C[C@]4(COC)CC[C@@H]3OC (stereo partly drawn) [Compound 66] | 22.9 ± 2.4 | − |
| CCO[C@]12C[C@H](OC)[C@@]3(OC(=O)c4cccs4)CC(C1[C@H]3OC(=O)c1ccc(OC)cc1)[C@]13C4[C@@H](OC)C2[C@H]1N(CC)C[C@]4(COC)CC[C@@H]3OC (stereo partly drawn) [Compound 19] | 7.13 ± 2.8 | − |
| CCN1C[C@]2(COC)CC[C@H](OC)[C@@]34C5C[C@]6(OC(=O)C(C)C)[C@@H](OC)C[C@@](OC(C)=O)(C5[C@H]6OC(=O)c5ccc(OC)cc5)C([C@H](OC)C23)[C@@H]14 (stereo partly drawn) [Compound 82] | 33.3 ± 1.5 | − |
| CCO[C@]12C[C@H](OC)[C@@]3(OC(=O)c4ccncc4)CC(C1[C@H]3OC(=O)c1ccc(OC)cc1)[C@]13C4[C@@H](OC)C2[C@H]1N(CC)C[C@]4(COC)CC[C@@H]3OC (stereo partly drawn) [Compound 50] | 33.2 ± 1.4 | − |
| CCN1C[C@]2(COC)CC[C@H](OC)[C@@]34C5C[C@]6(OC(=O)c7ccc([N+](=O)[O-])cc7)[C@@H](OC)C[C@@](OC(C)=O)(C5[C@H]6OC(=O)c5ccc(OC)cc5)C([C@H](OC)C23)[C@@H]14 (stereo partly drawn) [Compound 40] | 31.9 ± 1.8 | − |
| CCN1C[C@]2(COC)CC[C@H](OC)[C@@]34C5C[C@]6(OC(=O)C7CCCCC7)[C@@H](OC)C[C@@](OC(C)=O)(C5[C@H]6OC(=O)c5ccc(OC)cc5)C([C@H](OC)C23)[C@@H]14 (stereo partly drawn) [Compound 11] | 35.1 ± 1.2 | − |
